The text below walks through data of patent US5583147A, “Amides for the treatment of atherosclerosis” (The Dupont Merck Pharmaceutical Company, priority 1994, dated 1996).

Some results are limits rather than exact numbers.

In the experiment the target is T1, Acyl-CoA: Cholesterol Acyltransferase (ACAT) (Rattus norvegicus, UniProt Q7TQM4).
T1 construct: centrifuged at 105,000×g for 1 hour to pellet the microsomes; from tissue; host or cells: liver microsomes of male Sprague Dawley rats
T1 sequence (Q7TQM4 1-524): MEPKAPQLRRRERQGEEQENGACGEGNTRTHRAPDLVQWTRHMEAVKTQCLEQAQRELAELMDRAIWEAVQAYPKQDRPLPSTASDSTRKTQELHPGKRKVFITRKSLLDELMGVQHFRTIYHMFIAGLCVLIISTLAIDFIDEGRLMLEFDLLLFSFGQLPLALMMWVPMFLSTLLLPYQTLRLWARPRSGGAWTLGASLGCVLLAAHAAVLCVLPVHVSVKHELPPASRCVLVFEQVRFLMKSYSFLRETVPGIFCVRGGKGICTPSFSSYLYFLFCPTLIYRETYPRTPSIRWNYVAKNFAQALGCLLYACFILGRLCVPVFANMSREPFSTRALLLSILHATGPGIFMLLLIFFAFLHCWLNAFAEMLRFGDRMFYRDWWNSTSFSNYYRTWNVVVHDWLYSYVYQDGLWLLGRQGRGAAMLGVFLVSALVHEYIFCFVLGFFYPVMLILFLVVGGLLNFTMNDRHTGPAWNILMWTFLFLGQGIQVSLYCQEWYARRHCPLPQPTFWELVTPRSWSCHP
The experiment in a line: Inhibition of Acyl-CoA: Cholesterol Acyltransferase (ACAT) in Hepatic Microsomes (In Vitro Assay). In kind it is biochemical, rat (male Sprague Dawley). Conditions: 75 μM 14C-oleoyl-CoA, pH 7.4, 37° C., 10 min, read-out: ACAT Inhibitory Activity (In Vitro) (IC50). As for the experimental part:
A. Assay of the Inhibition of Acyl-CoA: Cholesterol Acyltransferase (ACAT) in Hepatic Microsomes (In Vitro Assay)
The ability of the compounds to inhibit ACAT, the enzyme responsible for the intracellular synthesis of cholesteryl esters, was tested as follows. Male Sprague Dawley rats weighing 150-300 g, were fed rat chow ad libitum. The animals were fasted for twenty-four hours prior to being euthanized by CO2. The livers were perfused in situ with 50 ml of cold 0.25 sucrose, excised, and homogenized in three volumes of 0.1M phosphate buffer, pH 7.4, that contained 0.5 mM EDTA (ethylenediamine-tetraacetic acid), 1.0 mM glutathione, 0.25M sucrose and […] leupeptin. Microsomes were obtained by differential centrifugation; the supernatant from an initial spin at 15,000×g for 15 minutes was centrifuged at 105,000×g for 1 hour to pellet the microsomes. The microsomes were suspended in homogenization buffer, reisolated by centrifugation, and stored at -70° C. Microsomes were used within one month of preparation.
The control assay in a final volume of 200 μl consisted of 200 μg of microsomal protein, 75 μM ^14 C-oleoyl-CoA (10,000 dpm/nmol) in 0.1M phosphate, pH 7.4, that contained 1 mM glutathione. Compounds were added in 5 μl of DMSO (dimethyl sulfoxide) and additional controls were run with DMSO only. All components, except the oleoyl-CoA, were preincubated for 15 min. at 37° C. prior to the initiation of the reaction by the addition of oleoyl-CoA. The assay was terminated after 10 min by the addition of 4 ml of chloroform:methanol (2:1, v/v). 20,000 dpm of ^3 H-cholesteryl oleate and 10 μg of unlabeled cholesteryl oleate and oleic acid were added as an internal standard and carriers, respectively. After allowing 10 min. for lipid extraction, the samples were centrifuged at 1,000×g for 10 min to separate the solvent layers. The chloroform layer containing the neutral lipids was spotted onto a Baker SI250-Pa silica gel TLC plate and the plate developed using a hexane:diethyl ether:acetic acid (170:30:1) v/v/v) mobile phase. The lipids were visualized by their interaction with iodine vapor and the cholesteryl ester spot was scraped into a scintillation vial and counted. The specific activity of ACAT in the control incubation averaged 260 pmol/min/mg microsomal protein. The data obtained are expressed as the concentration at which ACAT activity is inhibited by 50% (IC50).
One may read the IC50 as the concentration needed to halve the response being measured. On to `CCCCCCSC(C(=O)Nc1c(SC)cc(C)nc1SC)c1ccc(OCCCC)cc1` (stereo not drawn) [Example 260, N-[2,4-bis(methylthio)-6-methyl-3-pyridyl]-α-hexylthio-4-butoxy-phenylacetamide], for which the IC50 was below 1 µM.
As for `COc1ccc(C(SCc2ccc(F)cc2)C(=O)Nc2c(SC)cc(C)nc2SC)cc1OC` (stereo not drawn) [Example 237, N-[2,4-bis(methylthio)-6-methyl-3-pyridyl]-α-(4-fluoro-benzylthio)-3,4-dimethoxy-phenylacetamide], the figure is below 1 µM.
The figure for `CSc1cc(C)nc(SC)c1NC(=O)C(SCc1ccccc1)c1cccc(Oc2ccc(Br)cc2)c1` (stereo not drawn) [Example 322, N-[2,4-bis(methylthio)-6-methyl-3-pyridyl]-α-benzylthio-3-(4'-bromophenoxy)-phenylacetamide] is below 1 µM.
`COc1ccc(SC(C(=O)Nc2c(SC)cc(C)nc2SC)c2ccc(OC)cc2)cc1` (stereo not drawn) [Example 137, N-[2,4-bis(methylthio)-6-methyl-3-pyridyl]-α-(4-methoxy-phenylthio)-4-methoxy-phenylacetamide]: the IC50 was below 1 µM.
Regarding `CSc1cc(C)nc(SC)c1NC(=O)C(SCc1ccccc1)c1ccc(C(C)(C)C)cc1` (stereo not drawn) [Example 435, N-[2,4-bis(methylthio)-6-methyl-3-pyridyl]-α-benzylthio-4-tert-butylphenylacetamide], the IC50 is below 1 µM.
As for `COc1ccc(CSC(C(=O)Nc2c(SC)cc(C)nc2SC)c2ccc(Cl)cc2)cc1` (stereo not drawn) [Example 90, N-[2,4-bis(methylthio)-6-methyl-3-pyridyl]-α-(4-methoxy-benzylthio)-4-chloro-phenylacetamide], the figure is below 1 µM.
On to `CSc1cc(C)nc(SC)c1NC(=O)C(Sc1ccc(F)cc1)c1ccc(F)cc1` (stereo not drawn) [Example 166, N-[2,4-bis(methylthio)-6-methyl-3-pyridyl]-α-(4-fluoro-phenylthio)-4-fluoro-phenylacetamide], for which the 50% inhibitory concentration (IC50) was below 1 µM.
On to `CCCCCCSC(C(=O)Nc1c(SC)cc(C)nc1SC)c1ccc2c(c1)OCO2` (stereo not drawn) [Example 515, N-[2,4-bis(methylthio)-6-methyl-3-pyridyl]-α-hexylthio-3,4-methylenedioxyphenylacetamide], for which the IC50 was below 1 µM.
As for `CC(C)c1cccc(C(C)C)c1NC(=O)C(Sc1ccccc1)c1ccccc1` (single isomer, unassigned) [Example 64], the figure is 1 to 10 µM.
The figure for `CSc1cc(C)nc(SC)c1NC(=O)C(SCc1ccccc1)c1ccc(Cl)c(Cl)c1` (stereo not drawn) [Example 180, N-[2,4-bis(methylthio)-6-methyl-3-pyridyl]-α-benzylthio-3,4-dichloro-phenylacetamide] is below 1 µM.
On to `CCCCCCSC(C(=O)Nc1c(SC)cc(C)nc1SC)c1ccc(Cl)c(Cl)c1` (stereo not drawn) [Example 176, N-[2,4-bis(methylthio)-6-methyl-3-pyridyl]-α-hexylthio-3,4-dichloro-phenylacetamide], for which the half-inhibitory concentration (IC50) is below 1 µM.
As for `COc1ccc(CSC(C(=O)Nc2c(SC)cc(C)nc2SC)c2ccc(F)cc2F)cc1` (stereo not drawn) [Example 210, N-[2,4-bis(methylthio)-6-methyl-3-pyridyl]-α-(4-methoxy-benzylthio)-2,4-difluoro-phenylacetamide], the figure is below 1 µM.
As for `CCCCCCSC(C(=O)Nc1c(SC)cc(C)nc1SC)c1ccc(OC)cc1` (stereo not drawn) [Example 118, N-[2,4-bis(methylthio)-6-methyl-3-pyridyl]-α-hexylthio-4-methoxy-phenylacetamide], the figure is below 1 µM.
For the compound `CSc1cc(C)nc(SC)c1NC(=O)C(SCc1ccccc1)c1ccccc1` (single isomer, unassigned) [Example 47, N-[2,4-bis(methylthio)-6-methyl-3-pyridyl]-L-(+)-α-benzylthio-phenylacetamide], the IC50 was below 1 µM.
As to `CSc1cc(C)nc(SC)c1NC(=O)C(Sc1ccc(F)cc1)c1ccc(Cl)cc1` (stereo not drawn) [Example 104, N-[2,4-bis(methylthio)-6-methyl-3-pyridyl]-α-(4-fluoro-phenylthio)-4-chloro-phenylacetamide], the IC50 was below 1 µM.
The figure for `COc1ccc(CSC(C(=O)Nc2c(SC)cc(C)nc2SC)c2ccc(Cl)c(Cl)c2)cc1` (stereo not drawn) [Example 182, N-[2,4-bis(methylthio)-6-methyl-3-pyridyl]-α-(4-methoxy-benzylthio)-3,4-dichloro-phenylacetamide] is below 1 µM.
Regarding `CSc1cc(C)nc(SC)c1NC(=O)C(Sc1ccc(F)cc1)c1ccc(C(F)(F)F)cc1` (stereo not drawn) [Example 393, N-[2,4-bis(methylthio)-6-methyl-3-pyridyl]-α-(4-fluoro-phenylthio)-4-trifluoromethyl-phenylacetamide], the IC50 is below 1 µM.
As for `CCCCOc1ccc(C(SCc2ccccc2)C(=O)Nc2c(SC)cc(C)nc2SC)cc1` (stereo not drawn) [Example 264, N-[2,4-bis(methylthio)-6-methyl-3-pyridyl]-α-benzylthio-4-butoxy-phenylacetamide], the figure is below 1 µM; as for `CCCCOc1ccc(CSC(C(=O)Nc2c(SC)cc(C)nc2SC)c2ccc(-c3ccccc3)cc2)cc1` (stereo not drawn) [Example 467, N-[2,4-bis(methylthio)-6-methyl-3-pyridyl]-α-(4-butoxy-benzylthio)-4-biphenylacetamide], below 1 µM; as for `CCCCCCSC(C(=O)Nc1c(SC)cc(C)nc1SC)c1cccc(Oc2ccc(Br)cc2)c1` (stereo not drawn) [Example 317, N-[2,4-bis(methylthio)-6-methyl-3-pyridyl]-α-hexylthio-3-(4'-bromophenoxy)-phenylacetamide], below 1 µM.
As for `CSc1cc(C)nc(SC)c1NC(=O)C(SCc1ccc(F)cc1)c1ccc(F)cc1` (stereo not drawn) [Example 153, N-[2,4-bis(methylthio)-6-methyl-3-pyridyl]-α-(4-fluoro-benzylthio)-4-fluoro-phenylacetamide], the figure is below 1 µM; as for `COc1ccc(C(Sc2ccc(F)cc2)C(=O)Nc2c(SC)cc(C)nc2SC)cc1` (stereo not drawn) [Example 136, N-[2,4-bis(methylthio)-6-methyl-3-pyridyl]-α-(4-fluoro-phenylthio)-4-methoxy-phenylacetamide], below 1 µM.
The figure for `CSc1cc(C)nc(SC)c1NC(=O)C(SCc1ccc(F)cc1)c1ccc(Cl)cc1` (stereo not drawn) [Example 91, N-[2,4-bis(methylthio)-6-methyl-3-pyridyl]-α-(4-fluoro-benzylthio)-4-chloro-phenylacetamide] is below 1 µM.
With `CSc1cc(C)nc(SC)c1NC(=O)C(SCc1ccc(Cl)cc1)c1cccc(Oc2ccccc2)c1` (stereo not drawn) [Example 325, N-[2,4-bis(methylthio)-6-methyl-3-pyridyl]-α-(4-chloro-benzylthio)-3-phenoxy-phenylacetamide], the IC50 was below 1 µM.
As for `COc1ccc(CSC(C(=O)Nc2c(SC)cc(C)nc2SC)c2ccc(OC)cc2)cc1` (stereo not drawn) [Example 125, N-[2,4-bis(methylthio)-6-methyl-3-pyridyl]-α-(4-methoxy-benzylthio)-4-methoxy-phenylacetamide], the figure is below 1 µM; as for `CSc1cc(C)nc(SC)c1NC(=O)C(SCc1cccnc1)c1ccc(-c2ccccc2)cc1` (stereo not drawn) [Example 484, N-[2,4-bis(methylthio)-6-methyl-3-pyridyl]-α-(3-pyridyl-methylthio)-4-biphenylacetamide], below 1 µM; as for `COc1ccc(C(SCc2ccc(F)cc2)C(=O)Nc2c(SC)cc(C)nc2SC)cc1` (stereo not drawn) [Example 124, N-[2,4-bis(methylthio)-6-methyl-3-pyridyl]-α-(4-fluoro-benzylthio)-4-methoxy-phenylacetamide], below 1 µM.
The figure for `CCCCCCSC(C(=O)Nc1c(SC)cc(C)nc1SC)c1cccc(Oc2ccccc2)c1` (stereo not drawn) [Example 316, N-[2,4-bis(methylthio)-6-methyl-3-pyridyl]-α-hexylthio-3-phenoxy-phenylacetamide] is below 1 µM.
